Measured values reported in paper PMC7076388 (Pharmaceutics, 2020).
pIC50: −log10 of the molar value. Entries after “also recorded” stand apart in the source; their conditions may differ.

Assays:
[1] = molecular target: T1, COX-2 (Homo sapiens, UniProt P35354); design: method as in PMID 30987203; conditions: 25 µM; low selectivity towards COX-2; cited from earlier work
T1 construct: purchased Cayman Chemical
T1 sequence (P35354 18-604): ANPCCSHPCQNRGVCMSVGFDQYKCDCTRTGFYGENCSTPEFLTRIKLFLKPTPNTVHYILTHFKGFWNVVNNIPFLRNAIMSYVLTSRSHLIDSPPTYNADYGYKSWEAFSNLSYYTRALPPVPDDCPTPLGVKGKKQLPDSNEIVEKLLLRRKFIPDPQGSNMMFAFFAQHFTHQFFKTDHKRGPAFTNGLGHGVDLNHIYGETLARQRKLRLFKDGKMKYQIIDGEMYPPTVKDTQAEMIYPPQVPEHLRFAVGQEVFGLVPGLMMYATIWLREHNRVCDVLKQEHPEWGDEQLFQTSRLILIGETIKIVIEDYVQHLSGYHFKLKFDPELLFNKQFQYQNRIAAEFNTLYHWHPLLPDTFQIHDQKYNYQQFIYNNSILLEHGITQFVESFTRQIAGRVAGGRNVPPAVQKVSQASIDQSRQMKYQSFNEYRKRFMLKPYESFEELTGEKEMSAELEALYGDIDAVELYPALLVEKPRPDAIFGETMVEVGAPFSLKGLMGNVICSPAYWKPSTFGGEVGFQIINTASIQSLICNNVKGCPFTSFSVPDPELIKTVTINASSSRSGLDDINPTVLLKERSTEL

[2] = molecular target: T2, LOX from glycine max (soybean) (Glycine max, UniProt P08170); design: method as in PMID 30987203; conditions: 100 µM; cited from earlier work
T2 construct: purchased Sigma-Aldrich
T2 sequence (P08170 1-839): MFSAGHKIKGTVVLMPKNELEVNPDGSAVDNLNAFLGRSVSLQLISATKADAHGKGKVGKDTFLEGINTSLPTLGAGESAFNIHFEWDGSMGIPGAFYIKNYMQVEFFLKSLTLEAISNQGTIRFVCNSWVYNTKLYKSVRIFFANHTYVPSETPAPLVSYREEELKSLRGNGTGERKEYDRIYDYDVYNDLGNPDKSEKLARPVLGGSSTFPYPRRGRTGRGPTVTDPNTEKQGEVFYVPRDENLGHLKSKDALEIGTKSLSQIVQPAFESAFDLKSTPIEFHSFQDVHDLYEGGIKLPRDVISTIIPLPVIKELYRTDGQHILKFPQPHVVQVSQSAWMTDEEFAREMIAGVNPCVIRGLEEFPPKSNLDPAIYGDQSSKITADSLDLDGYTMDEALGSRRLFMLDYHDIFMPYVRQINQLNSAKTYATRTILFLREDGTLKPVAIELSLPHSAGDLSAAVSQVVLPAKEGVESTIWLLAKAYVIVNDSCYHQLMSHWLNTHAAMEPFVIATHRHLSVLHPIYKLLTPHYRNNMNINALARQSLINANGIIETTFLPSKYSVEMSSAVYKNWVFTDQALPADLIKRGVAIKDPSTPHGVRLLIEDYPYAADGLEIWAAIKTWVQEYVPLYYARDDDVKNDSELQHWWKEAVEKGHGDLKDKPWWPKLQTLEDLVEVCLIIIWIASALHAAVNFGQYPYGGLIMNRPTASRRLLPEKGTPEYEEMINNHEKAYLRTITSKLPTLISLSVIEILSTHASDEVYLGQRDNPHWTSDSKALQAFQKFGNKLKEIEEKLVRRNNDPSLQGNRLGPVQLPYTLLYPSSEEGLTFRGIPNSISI

[3] = test system: AGS cells; assay: MTT cell viability, AGS cells; type: cell-based; conditions: 100 µM, 24 h
Method: Adenocarcinoma gastric cells (AGS; Sigma-Aldrich, St. Louis, MO, USA), murine-macrophage cell line (RAW 264.7; American Type Culture Collection, LGC Standards S.L.U., Barcelona, Spain), and human foetal lung fibroblasts (MRC-5; ECACC, Porton Down Salisbury, UK) were cultured as a monolayer at 37 °C in a humidified incubator with 5% carbon dioxide. AGS and RAW 264.7 cells were grown in DMEM, supplemented with 1% streptomycin/penicillin and 10% FBS (Gibco®). MRC-5 cells were grown in MEM, supplemented with 1% streptomycin/penicillin and 10% FBS.
Cell viability was evaluated by the MTT reduction assay. Cells were cultured in 96-well plates (15,000 cells/well for AGS, 25,000 cells/well for RAW and 20,000 cells/well for MRC-5) and allowed to attach for 24 h. After incubation with compounds for 24 h, MTT (0.5 mg/mL final concentration) was added to each well and the plate was incubated for 75 min at 37 °C. Formazan crystals were dissolved by the addition of a DMSO: isopropanol mixture (3:1) and then quantified spectrophotometrically at 570 nm using a microplate reader (Multiskan Thermo Fisher Scientific Oy, Vantaa, Finland).

[4] = molecular target: 20S proteasome isolated from erythrocytes (Homo sapiens, UniProt P28074); assay: 20S proteasome inhibition (chymotrypsin-like activity); type: biochemical; design: purified 20S proteasome isolated from erythrocytes (Enzo Life Sciences); purchased Enzo Life Sciences; host or cells: erythrocytes
Method: Proteasome activity was measured by adapting a method described by Silva et al.. The substrate used to study chymotrypsin-like enzyme activity was Suc-Leu-Leu-Val-Tyr-AMC and the enzyme used was purified 20S proteasome isolated from erythrocytes (Enzo Life Sciences). […] The plate was incubated at 37 °C in the dark for 2 h. […] Lactacystin was used as positive control.

[5] = test system: RAW 264.7 cells; design: method as in PMID 30987203; conditions: up to 100 µM, 24 h, MTT; cited from earlier work

Q: Which results are given for `COc1ccc2cc(C(C)C(=O)NC(Cc3ccc(O)cc3)C(=O)NC(=Cc3ccccc3)C(=O)O)ccc2c1` [Compound 1, Npx-L-Tyr-Z-ΔPhe-OH]?
A: COX inhibition level (COX-2) [1]: modest levels of COX inhibition; LOX inhibition at single concentration [2]: significantly inhibit the LOX enzyme to a similar level to naproxen; also recorded: high levels of lipoxygenase (LOX) inhibition; toxicity towards AGS cells [3]: not toxic; remaining activity at 100 µM ([4]; 100 µM, read-out: 20S proteasome enzyme activity remaining): 11%; pIC50 ([4]; dose-response assay): 4.51; cytotoxic effect on RAW 264.7 viability [5]: did not show any statistically significant cytotoxic effects
